According to PubChem BioAssay AID248 (DTP/NCI, 2004):
Values joined by “and” are separate entries in the source; they are usually repeats but may differ in a detail not shown here. Equal entries are not always repeated. Toxic doses and inconclusive results are not listed. No stated cut-off is given here; in the data, active means T/C of 150% or more; inactive means T/C below 125%.

System: L1210 leukemia ip in BDF1 mice, survival T/C
Assay: NCI In Vivo Anticancer Drug Screen. Data for tumor model L1210 Leukemia (intraperitoneal) in B6D2F1 (BDF1) mice
Conditions: higher = longer survival
Method in brief: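 Value reflects the ratio of survival in compound-treated mice to survival in vehicle-treated controls, with both groups carrying the same transplanted tumor.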

Measured: T/C

CO[C@H](C(=O)[C@@H](O)[C@@H](C)O)[C@@H]1Cc2cc3cc(OC4CC(OC5CC(O)C(O)C(C)O5)C(O)C(C)O4)c(C)c(O)c3c(O)c2C(=O)[C@H]1OC1CC(OC2CC(OC3CC(C)(O)C(O)C(C)O3)C(O)C(C)O2)C(O)C(C)O1 (stereo partly specified)
inactive: endpoint: mean survival time, dose: 0.13 mg/kg/injection, schedule: Q01DX001 (iv), vehicle: water 86 % of control | endpoint: mean survival time, dose: 0.15 mg/kg/injection, schedule: Q01DX015 (ip), vehicle: saline 93 % of control | endpoint: mean survival time, dose: 0.25 mg/kg/injection, schedule: Q01DX001 (ip), vehicle: water 104 % of control | endpoint: mean survival time, dose: 0.25 mg/kg/injection, schedule: Q01DX001 (iv), vehicle: water 96 % of control | endpoint: mean survival time, dose: 0.25 mg/kg/injection, schedule: Q01DX Z (ip), vehicle: saline 98 % of control | endpoint: mean survival time, dose: 0.31 mg/kg/injection, schedule: Q01DX015 (ip), vehicle: saline 104 % of control | endpoint: mean survival time, dose: 0.37 mg/kg/injection, schedule: Q01DX001 (ip), vehicle: water 98 % of control | endpoint: mean survival time, dose: 0.5 mg/kg/injection, schedule: Q01DX001 (ip), vehicle: saline 98 % of control and 101 % of control | endpoint: mean survival time, dose: 0.5 mg/kg/injection, schedule: Q01DX001 (ip), vehicle: water 95 % of control and 97 % of control | endpoint: mean survival time, dose: 0.5 mg/kg/injection, schedule: Q01DX001 (iv), vehicle: water 100 % of control | endpoint: mean survival time, dose: 0.5 mg/kg/injection, schedule: Q01DX Z (ip), vehicle: saline 107 % of control | endpoint: mean survival time, dose: 0.62 mg/kg/injection, schedule: Q01DX015 (ip), vehicle: saline 102 % of control | endpoint: mean survival time, dose: 1.0 mg/kg/injection, schedule: Q01DX001 (ip), vehicle: saline 97 % of control | endpoint: mean survival time, dose: 1.0 mg/kg/injection, schedule: Q01DX Z (ip), vehicle: saline 103 % of control | endpoint: mean survival time, dose: 1.25 mg/kg/injection, schedule: Q01DX001 (ip), vehicle: saline 109 % of control | endpoint: mean survival time, dose: 1.25 mg/kg/injection, schedule: Q01DX015 (ip), vehicle: saline 96 % of control | endpoint: mean survival time, dose: 2.0 mg/kg/injection, schedule: Q01DX001 (ip), vehicle: saline 101 % of control | endpoint: mean survival time, dose: 2.5 mg/kg/injection, schedule: Q01DX001 (ip), vehicle: saline 109 % of control | endpoint: mean survival time, dose: 10.0 mg/kg/injection, schedule: Q01DX001 (ip), vehicle: saline 91 % of control | endpoint: mean survival time, dose: 1.5 micrograms/kg/injection, schedule: Q01DX009 (ip), vehicle: saline 101 % of control and 114 % of control | endpoint: mean survival time, dose: 3.0 micrograms/kg/injection, schedule: Q01DX009 (ip), vehicle: saline 100 % of control and 104 % of control | endpoint: mean survival time, dose: 6.0 micrograms/kg/injection, schedule: Q01DX009 (ip), vehicle: saline 95 % of control and 97 % of control | endpoint: mean survival time, dose: 12.0 micrograms/kg/injection, schedule: Q01DX009 (ip), vehicle: saline 94 % of control and 95 % of control | endpoint: mean survival time, dose: 12.0 micrograms/kg/injection, schedule: Q04DX002 (ip), vehicle: saline 97 % of control and 108 % of control | endpoint: mean survival time, dose: 22.0 micrograms/kg/injection, schedule: Q01DX Z (ip), vehicle: water 97 % of control | endpoint: mean survival time, dose: 22.0 micrograms/kg/injection, schedule: Q02DX Z (ip), vehicle: water 88 % of control | endpoint: mean survival time, dose: 23.0 micrograms/kg/injection, schedule: Q04DX002 (ip), vehicle: saline 101 % of control and 90 % of control | endpoint: mean survival time, dose: 25.0 micrograms/kg/injection, schedule: Q01DX009 (ip), vehicle: saline 99 % of control and 100 % of control | endpoint: mean survival time, dose: 33.0 micrograms/kg/injection, schedule: Q01DX Z (ip), vehicle: water 91 % of control | endpoint: mean survival time, dose: 33.0 micrograms/kg/injection, schedule: Q02DX Z (ip), vehicle: water 96 % of control | endpoint: mean survival time, dose: 45.0 micrograms/kg/injection, schedule: Q04DX002 (ip), vehicle: saline 94 % of control and 103 % of control | endpoint: mean survival time, dose: 50.0 micrograms/kg/injection, schedule: Q01DX009 (ip), vehicle: saline 103 % of control and 110 % of control | endpoint: mean survival time, dose: 50.0 micrograms/kg/injection, schedule: Q01DX Z (ip), vehicle: water 88 % of control | endpoint: mean survival time, dose: 50.0 micrograms/kg/injection, schedule: Q02DX Z (ip), vehicle: water 91 % of control | endpoint: mean survival time, dose: 62.5 micrograms/kg/injection, schedule: Q01DX Z (ip), vehicle: saline 97 % of control | endpoint: mean survival time, dose: 75.0 micrograms/kg/injection, schedule: Q01DX Z (ip), vehicle: water 91 % of control | endpoint: mean survival time, dose: 75.0 micrograms/kg/injection, schedule: Q02DX Z (ip), vehicle: water 97 % of control | endpoint: mean survival time, dose: 90.0 micrograms/kg/injection, schedule: Q04DX002 (ip), vehicle: saline 100 % of control and 106 % of control | endpoint: mean survival time, dose: 125.0 micrograms/kg/injection, schedule: Q01DX009 (ip), vehicle: clinical formulation 103 % of control | endpoint: mean survival time, dose: 125.0 micrograms/kg/injection, schedule: Q01DX009 (ip), vehicle: saline 105 % of control | endpoint: mean survival time, dose: 125.0 micrograms/kg/injection, schedule: Q01DX Z (ip), vehicle: saline 107 % of control | endpoint: mean survival time, dose: 190.0 micrograms/kg/injection, schedule: Q04DX002 (ip), vehicle: saline 87 % of control and 90 % of control | endpoint: mean survival time, dose: 250.0 micrograms/kg/injection, schedule: Q01DX009 (ip), vehicle: clinical formulation 103 % of control | endpoint: mean survival time, dose: 250.0 micrograms/kg/injection, schedule: Q01DX009 (ip), vehicle: saline 107 % of control | endpoint: mean survival time, dose: 250.0 micrograms/kg/injection, schedule: Q01DX Z (ip), vehicle: saline 109 % of control | endpoint: mean survival time, dose: 370.0 micrograms/kg/injection, schedule: Q04DX002 (ip), vehicle: saline 97 % of control and 103 % of control | endpoint: mean survival time, dose: 375.0 micrograms/kg/injection, schedule: Q01DX009 (ip), vehicle: saline 108 % of control | endpoint: mean survival time, dose: 500.0 micrograms/kg/injection, schedule: Q01DX009 (ip), vehicle: clinical formulation 108 % of control | endpoint: mean survival time, dose: 500.0 micrograms/kg/injection, schedule: Q01DX009 (ip), vehicle: saline 113 % of control | endpoint: mean survival time, dose: 500.0 micrograms/kg/injection, schedule: Q01DX Z (ip), vehicle: saline 113 % of control | endpoint: mean survival time, dose: 750.0 micrograms/kg/injection, schedule: Q01DX009 (ip), vehicle: saline 108 % of control | endpoint: mean survival time, dose: 1000.0 micrograms/kg/injection, schedule: Q01DX009 (ip), vehicle: clinical formulation 109 % of control | endpoint: mean survival time, dose: 1000.0 micrograms/kg/injection, schedule: Q01DX009 (ip), vehicle: saline 114 % of control | endpoint: mean survival time, dose: 1500.0 micrograms/kg/injection, schedule: Q01DX009 (ip), vehicle: saline 108 % of control | endpoint: mean survival time, dose: 3000.0 micrograms/kg/injection, schedule: Q01DX009 (ip), vehicle: saline 113 % of control | endpoint: median survival time, dose: 0.25 mg/kg/injection, schedule: Q01DX009 (ip), vehicle: saline 100 % of control and 111 % of control | endpoint: median survival time, dose: 0.5 mg/kg/injection, schedule: Q01DX009 (ip), vehicle: saline 106 % of control and 122 % of control

CN=C(NN(C)C)c1ccc(NC(=O)c2ccc(C(=O)Nc3ccc(C(=NC)NN(C)C)cc3)cc2)cc1
inactive: endpoint: mean survival time, dose: 2.5 mg/kg/injection, schedule: Q01DX Z (ip), vehicle: carboxymethylcellulose (CMC) 97 % of control | endpoint: mean survival time, dose: 5.0 mg/kg/injection, schedule: Q01DX Z (ip), vehicle: carboxymethylcellulose (CMC) 111 % of control | endpoint: mean survival time, dose: 25.0 mg/kg/injection, schedule: Q01DX Z (oral), vehicle: carboxymethylcellulose (CMC) 116 % of control | endpoint: mean survival time, dose: 50.0 mg/kg/injection, schedule: Q01DX Z (oral), vehicle: carboxymethylcellulose (CMC) 110 % of control | endpoint: mean survival time, dose: 100.0 mg/kg/injection, schedule: Q01DX Z (oral), vehicle: carboxymethylcellulose (CMC) 102 % of control | endpoint: mean survival time, dose: 200.0 mg/kg/injection, schedule: Q01DX Z (oral), vehicle: carboxymethylcellulose (CMC) 104 % of control

O=C1C=CC(=O)N1c1ccc(Br)c(Cl)c1
inactive: endpoint: mean survival time, dose: 12.5 mg/kg/injection, schedule: Q04DX002 (ip), vehicle: other 121 % of control | endpoint: mean survival time, dose: 25.0 mg/kg/injection, schedule: Q04DX002 (ip), vehicle: other 105 % of control | endpoint: mean survival time, dose: 50.0 mg/kg/injection, schedule: Q04DX002 (ip), vehicle: other 112 % of control

O=C(O)CSc1ccc2ccccc2c1
inactive: endpoint: mean survival time, dose: 100.0 mg/kg/injection, schedule: Q04DX002 (ip), vehicle: Klucel (hydroxypropylcellulose) (HPC) 89 % of control | endpoint: mean survival time, dose: 200.0 mg/kg/injection, schedule: Q04DX002 (ip), vehicle: Klucel (hydroxypropylcellulose) (HPC) 111 % of control | endpoint: mean survival time, dose: 400.0 mg/kg/injection, schedule: Q04DX002 (ip), vehicle: Klucel (hydroxypropylcellulose) (HPC) 108 % of control

O=C(Nc1cccc(F)c1)Nc1ccc(Cl)cc1Cl
inactive: endpoint: mean survival time, dose: 100.0 mg/kg/injection, schedule: Q01DX009 (ip), vehicle: Klucel (hydroxypropylcellulose) (HPC) 96 % of control | endpoint: mean survival time, dose: 200.0 mg/kg/injection, schedule: Q01DX009 (ip), vehicle: Klucel (hydroxypropylcellulose) (HPC) 91 % of control
